According to US7122533B2, “Cosalane compounds and methods for their use” (The United States of America as represented by the …, priority 1999, dated 2006):

Key:
Format in all cases: cell-based
[1] = test system: human monocytes (MIP1-β-induced migration); experiment: MIP1-β-induced monocyte migration; settings: compound at 1 μM, chemokine at 2.5 ng/ml, data not shown
Description: (§1) Monocyte chemotaxis was performed as previously described [Wang (1993) J. Immunol. 150:3022–3029]. Briefly, monocytes were resuspended in binding media (RPMI-1640 media containing 1% BSA, 25 mM HEPES, pH 8.0) at 1–2×10^6 cells/ml. […] Five micrometer polyvinyl-free polycarbonate membranes were placed over the chemokine mixtures. After the micro-chemotaxis chamber was assembled, 50 μl of cells were placed in the upper wells. The filled chemotaxis chambers were incubated in a humidified CO2 incubator for 90 minutes.
(§2) After incubating, the membranes were removed from the chemotaxis chamber assembly followed by gently removing the cells from the upper side of the membrane. Then cells on the lower side of the membrane were stained.
(§3) The number of cells migrating to the chemokine mixtures was determined for binding media alone, and chemokine treated and untreated cells. HEK-293 cells transfected to express human CCR1, CCR3 or CCR5 receptors were resuspended in binding media at 7.5×10^5 cells/ml. Ten μm polyvinyl-free polycarbonate membranes (Neuro Probe) were treated with 47 ug/ml rat tail collagen type 1 (Collaborative Biomedical Products, Bedford, Md.) in RPMI-1640 overnight, dried and placed over the chemoattractants. The assembled chemotaxis chambers were incubated in a humidified CO2 incubator for 5.5–6 hours. After the incubation, the membranes were removed from the chemotaxis chamber assembly followed by gently removing cells from the upper side of the membrane. The stained and dried membrane was mounted and the cells on the underside of the membrane were counted at 200× magnification.
(§4) It is noted that both MIP1-α and MIP1-β are ligands for CCR1, CCR5, and D6 (8).

human CCR1 [2] = molecular target: T1, human CCR1 (Homo sapiens, UniProt P32246); experiment: MIP1β-induced migration of CCR1 transfectants; settings: compound at 1 μM, data not shown
T1 construct: expressed in transfected cells; host or cells: HEK-293
T1 sequence (P32246 1-355): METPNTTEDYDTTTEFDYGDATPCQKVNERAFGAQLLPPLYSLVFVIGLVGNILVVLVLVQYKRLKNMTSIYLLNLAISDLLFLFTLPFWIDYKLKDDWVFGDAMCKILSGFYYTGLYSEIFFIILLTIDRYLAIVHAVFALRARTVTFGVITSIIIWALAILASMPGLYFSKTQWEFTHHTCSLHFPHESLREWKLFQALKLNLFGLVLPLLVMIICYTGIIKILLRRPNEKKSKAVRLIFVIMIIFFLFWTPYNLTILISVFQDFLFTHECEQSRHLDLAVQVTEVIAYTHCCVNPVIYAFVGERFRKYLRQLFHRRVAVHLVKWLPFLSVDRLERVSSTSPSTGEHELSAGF
Description: (§5) Human embryonic kidney cells 293 (HEK-293) transfected to express human CCR1, CCR3, or CCR5 receptors were cultured in Dulbecco's Modified Eagles Medium (DMEM, Biowhiftaker, Walkersville, Md.) containing 10% Fetal Bovine Serum (FBS, Hyclone, Logan, Utah), 2 mM glutamine and 100 U/ml penicillin and streptomycin (Quality Biologicals, Gaithersburg, Md.). Peripheral blood mononuclear cells were isolated from fresh normal donor apheresis packs by centrifugation over Ficoll. Monocytes were enriched by 85–95% using percoll fractionation (Pharmacia, Piscataway, N.J.).
as §3, with “magnification. The results are reported as the average number of cells per high powered field at a given chemokine concentration±standard deviation.” for “magnification.”
(§6) The ability of compound 3 to inhibit RANTES-induced migration of human embryonic kidney (HEK) cells transfected to express individual chemokine receptors was initially tested. Although the cosalane analog 3 (1 μM) had no effect on RANTES-induced migration of CCR5 transfectants, it inhibited 50% of RANTES-induced CCR1 transfectant migration (FIG. 2). In contrast, the MIP1α- and MIP1β-induced migration of CCR1 transfectants was not inhibited by compounds 1, 2 or 3 when tested at concentrations of 1 μM (data not shown).

human CCR1 [3] = molecular target: T1, human CCR1; experiment: MIP1α-induced migration of CCR1 transfectants; settings: compound at 1 μM, data not shown
Description: as §5
as §3, with “magnification. The results are reported as the average number of cells per high powered field at a given chemokine concentration±standard deviation.” for “magnification.”
as §6

[4] = test system: MCP-4/CCR2-mediated monocyte migration; experiment: MCP-4-induced human monocyte migration; settings: FIG. 3
Description: (§7) Monocyte chemotaxis was performed as previously described [Wang (1993) J. Immunol. 150:3022–3029]. Briefly, monocytes were resuspended in binding media (RPMI-1640 media containing 1% BSA, 25 mM HEPES, pH 8.0) at 1–2×10^6 cells/ml. Chemokines, diluted in binding media, were mixed with cosalane or the indicated cosalane analog and placed in the lower wells of a micro-chemotaxis chamber (Neuro Probe, Cabin John, Md.). Five micrometer polyvinyl-free polycarbonate membranes were placed over the chemokine mixtures. After the micro-chemotaxis chamber was assembled, 50 μl of cells were placed in the upper wells. The filled chemotaxis chambers were incubated in a humidified CO2 incubator for 90 minutes.
as §2
as §3, with “magnification. The results are reported as the average number of cells per high powered field at a given chemokine concentration±standard deviation.” for “magnification.”
Although MCP-4 is known to bind to CCR2 and CCR3, fresh primary human monocytes only express high levels of CCR2.

[5] = test system: human monocytes (SDF-1α-induced migration; CXCR4 ligand); experiment: SDF-1α-induced monocyte/lymphocyte migration; settings: compound at 1 μM, FIG. 1
Description: as §7, §2
The number of cells migrating to the chemokine mixtures was determined for binding media alone, and chemokine treated and untreated cells. […] The stained and dried membrane was mounted and the cells on the underside of the membrane were counted at 200× magnification. […]
The ability of the cosalane analogs 3 and 4 to block SDF-1α (a CXCR4 ligand) and RANTES (a CCR1, CCR3, and CCR5 ligand) induced migration of human monocytes or lymphocytes was initially evaluated. […]

[6] = test system: human monocytes (acetylated RANTES-induced migration); experiment: monocyte migration induced by acetylated (modified) RANTES; settings: 10 μM compound; acetylated RANTES 50–1000 ng/mL, FIG. 6
Description: as §7, §2
as §3, with “magnification. The results are reported as the average number of cells per high powered field at a given chemokine concentration±standard deviation. […]” for “magnification.”

human CCR5 = molecular target: T2, human CCR5 (Homo sapiens, UniProt P51681); experiment: RANTES-induced CCR5/HEK-293 transfectant migration; settings: compound at 1 μM, FIG. 2
T2 construct: expressed in transfected cells; host or cells: HEK-293
T2 sequence (P51681 whole entry): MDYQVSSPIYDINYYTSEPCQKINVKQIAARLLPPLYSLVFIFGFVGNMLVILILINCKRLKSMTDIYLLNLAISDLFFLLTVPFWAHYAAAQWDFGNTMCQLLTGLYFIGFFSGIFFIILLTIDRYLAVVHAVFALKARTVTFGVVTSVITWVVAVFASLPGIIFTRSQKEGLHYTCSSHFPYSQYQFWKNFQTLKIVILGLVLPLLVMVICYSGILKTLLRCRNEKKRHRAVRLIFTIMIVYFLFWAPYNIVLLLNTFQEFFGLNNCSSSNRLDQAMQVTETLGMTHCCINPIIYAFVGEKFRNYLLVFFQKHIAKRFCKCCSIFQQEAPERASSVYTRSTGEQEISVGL
Description: as §5
as §3, with “After the incubation, the membranes were removed from the chemotaxis chamber assembly followed by gently removing cells from the upper side of the membrane.” left out, “magnification. […]” for “magnification.”

[7] = test system: human monocytes (MIP1-α-induced migration); experiment: MIP1-α-induced monocyte migration; settings: compound at 1 μM, chemokine at 2.5 ng/ml, data not shown
Description: as §1, §2, §3, §4

[8] = test system: human monocytes (RANTES-induced migration); experiment: RANTES-induced monocyte migration (micro-chemotaxis chamber)
Description: as §5, §7, §2
as §3, with “magnification. The results are reported as the average number of cells per high powered field at a given chemokine concentration±standard deviation.” for “magnification.”

human CCR1 [9] = molecular target: T1, human CCR1; experiment: RANTES-induced CCR1/HEK-293 transfectant migration
Description: as §5, with “Ficoll.” for “Ficoll. Monocytes were enriched by 85–95% using percoll fractionation (Pharmacia, Piscataway, N.J.).”
as §3

In the case of `CC(C)CCCC(C)[C@H]1CCC2C3CCC4C[C@@H](CCC=C(c5cc(Cl)c(OCc6ccccc6C(=O)O)c(C(=O)O)c5)c5cc(Cl)c(OCc6ccccc6C(=O)O)c(C(=O)O)c5)CC[C@]4(C)C3CC[C@@]21C` (stereo partly shown) [Compound 3], the “inhibition of MIP1-β-induced monocyte migration” value [1] is reported as “neither MiP1-α- nor MIP1-β-induced monocyte migration was inhibited”, the “inhibition of MIP1β-induced migration of CCR1 transfectants” value (human CCR1 [2]) is reported as “not inhibited” and the “inhibition of MIP1α-induced migration of CCR1 transfectants” value (human CCR1 [3]) is reported as “not inhibited”. The “block of MCP-4/CCR2-mediated monocyte migration” value [4] was “block”, the “inhibition of SDF-1α-induced monocyte migration” value [5] was “effective inhibitor” and the “inhibition of the activity of modified (acetylated) RANTES to attract monocytes” value [6] was “not inhibited”. The “effect on RANTES-induced migration of CCR5 transfectants” value (human CCR5) was “no effect”, the “inhibition of MIP1-α-induced monocyte migration” value [7] was “neither MiP1-α- nor MIP1-β-induced monocyte migration was inhibited” and the IC50 ([8]; Homo sapiens, Monocyte, ≦ 5% standard error, NA = not active) was 3.9 µM. The “inhibition of RANTES-induced monocyte migration” value ([8]; compound at 1 μM, FIG. 1) was “effective inhibitor”, the “activity as inhibitors of RANTES-induced migration” value ([8]; discussion of Table 1) was “retain activity” and the inhibition at 1 µM (human CCR1 [9]; HEK293, compound at 1 μM, FIG. 2) was 50%. It also gave an IC50 (human CCR1 [9]; ≦ 5% standard error, NA = not active, read-out: IC50 (μM) RANTES-Induced CCRI/HEK Migration) of 0.26 µM.
